In patent US9180155B2, “Compositions from Nigella sativa” (Bio Nexus, Ltd, priority 2013, dated 2015):

Tests used:
[1] = DPPH free radical scavenging (antioxidant) assay; details: computed on basis of TQ content; inactive samples tested up to 1000 μg/mL
Method: Antioxidant activity was determined utilizing 2,2-diphenyl-1-picrylhydrazyl (DPPH), which is a stable radical. The odd electron in the DPPH free radical gives a strong absorption maximum at 550 nm and is purple in color. The color turns from purple to yellow as the molar absorption of the DPPH radical at 550 nm is reduced when the odd electron of DPPH radical becomes paired with hydrogen from a free radical scavenging antioxidant to form the reduced DPPH-H. The test samples were dissolved in methanol containing 1% dimethyl sulfoxide and added to microtiter wells in 100 μL aliquots to 100 μL of a 100 μM DPPH solution in methanol. Readings were taken at 10, 30 and 60 minutes following the addition of the test material. Percent inhibition of the DPPH radical by the test material was computed relative to the inhibition of the DPPH radical by the vitamin E analog trolox and tabulated as μmol trolox/g test material.

[2] = test system: prostate specific antigen (PSA) secretion by LNCaP prostate cells; experiment: PSA secretion from LNCaP prostate cells; type: cell-based, Human; details: 5 to 100 μg/mL (Spent#1, NSSpent#2: 250 and 500)
Excerpt: PSA was quantified from the cell culture supernatant fluid using the Quantikine Human KLK3/PSA Immunoassay kit (R&D Systems, Inc., Minneapolis, Minn.). All other materials used in this example were purchased from Sigma (St. Louis, Mo.) or otherwise noted and were of the highest purity commercially available. The N. sativa samples used in this study were those commercial-scale extracts described in Example 1. The LNCaP prostate cell line, which produces PSA, was used to study the effects of commercial-scale N. sativa scale extracts of Example 1 and pure TQ on the secretion of PSA. LNCaP cells were purchased from the American Type Culture Collection (ATCC, Manassas, Va.) and sub-cultured according to instructions supplied by ATCC. Prior to experiments, cells were cultured in DMEM containing 10% FBS-HI added 50 units penicillin/ml and 50 μg streptomycin/ml, and maintained in log phase prior to experimental setup. Cells were grown in a 5% CO2 humidified incubator at 37° C. Components of medium included: (1) 10% FBS/DMEM (Fetal Bovine Serum/Dulbecco's Modified Eagle's Medium) containing 4.5 g glucose/L; (2) 50 U/ml penicillin; and (3) 50 μg/ml streptomycin. Growth medium was made by adding 50 ml of heat inactivated FBS and 5 ml of penicillin/streptomycin to 500 ml DMEM. This medium was stored at 4° C. Before use, the medium was warmed to 37° C. in a water bath. LNCaP cells were seeded at an initial density of 6×10^4 cells/cm^2 in 96-well plates. For two days, the cells were allowed grow to reach confluence. On day three post seeding, cells were treated with TQ, NS8, NS9, NS10, Spent#1, and NSSpent#2 at the concentrations listed in FIGS. 5, 6 and 7. Twenty-four hours later, the supernatant media were sampled and assayed for PSA.

[3] = test system: Caco-2 monolayers; experiment: t10-CLA-induced loss of TEER in Caco-2 monolayers; type: cell-based, human; details: t10-CLA 50 μM control = 100; μg TQ equivalents/mL: Thymoquinone 5.0, NS8 0.11, NS9 0.99, NS10 0.012, NSSpent#2 0.0005; NSSpent#1 5 μg/mL; listed as TQ
Excerpt: The protocol for growing and differentiation the human Caco-2 colon andenocarcinoma cells was a modification of Protocol 3 as described by Yamashita et al. [[…]., and Furuyama, Y. 2002) New and better protocols for a short-term Caco-2 cell culture system, J Pharm Sci 91, 669-679]. Caco-2 Human Colon Adenocarcinoma cells were obtained from ATCC (Rockville, Md.; catalog #HTB-37) and maintained in a growth media: DMEM (Dulbecco's Modified Eagles Medium 1×) containing L-glutamine, glucose; Cellgro catalog #35-010CV with the following additions: (1) Penicillin (5,000 IU/mL)/Streptomycin (5,000 μg/mL) Cellgro catalog #30-001C1, (2) 10% FBS-Fetal Bovine Serum, Characterized; Hyclone catalog #SH30071.3, and (3) 1% NEAA-Non Essential Amino Acids; Cellgro catalog #25-025-CI; cells were cultured at 37 C in a humidified air-5% CO2 atmosphere in T175 flasks. BIOCOAT^R HTS Caco-2 Assay System kits (Becton Dickinson, N.J.; catalog #354801) consisting of 24-well fibrillar collagen coated inserts and feeder trays were used in all experiments and plated as follows. Media was removed from the T175 flasks and cells were washed with 10 mLs PBS (phosphate buffered saline 1× without Ca^++, without Mg^++; Cellgro #25-053-CI). […]

With `CC1=CC(=O)C(C(C)C)=CC1=O` [Thymoquinone, thymoquinone] the “DPPH Reducing Activity” value [1] was 45.2 μmol Trolox/g TQ, the “Effect on PSA Secretion over 24 Hours” value ([2]; at 5 and 10 µg/mL) was “Decreased PSA at 5 and 10 μg/mL, dramatic” and the “Effect on PSA Secretion over 24 Hours” value ([2]; at 50 and 100 µg/mL) was “increase in PSA secretion at 50 and 100 μg/mL”. The “Effect on PSA Secretion over 24 Hours” value ([2]; listed as TQ) was “decreased PSA only at the two lowest doses tested” and the “Relative Loss of TEER” value [3] was “inhibited loss of TEER”.
